Results as given in ChEMBL document CHEMBL1133816, “Potent second generation vinyl sulfonamide inhibitors of the trypanosomal cysteine protease cruzain” (2001).

How the values were obtained:
[1] = biological target: Cruzipain (Trypanosoma cruzi) (UniProt P25779); assay: Second order rate constant for inactivation of cruzain of Trypanosoma cruzi
Trypanosoma cruzi [2] = assay: Effect on survival time of against […] macrophages infected with Trypanosoma cruzi trypomastigotes at a concentration of 10 uM; format: functional
Trypanosoma cruzi [3] = assay: Effect on survival time of against […] macrophages infected with Trypanosoma cruzi trypomastigotes at a concentration of 30 uM; format: functional, organism-based

Chain of Cruzipain (Trypanosoma cruzi) (P25779 123-467 limits assumed): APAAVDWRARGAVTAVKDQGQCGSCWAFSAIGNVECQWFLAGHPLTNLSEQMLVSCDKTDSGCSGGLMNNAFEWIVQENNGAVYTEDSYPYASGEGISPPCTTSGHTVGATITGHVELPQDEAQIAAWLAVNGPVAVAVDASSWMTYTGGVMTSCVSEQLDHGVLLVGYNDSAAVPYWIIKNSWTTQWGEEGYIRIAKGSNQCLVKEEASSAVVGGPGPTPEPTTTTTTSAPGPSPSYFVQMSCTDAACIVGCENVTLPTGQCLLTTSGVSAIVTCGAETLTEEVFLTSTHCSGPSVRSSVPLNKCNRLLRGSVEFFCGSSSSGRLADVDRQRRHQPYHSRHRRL

Row | SMILES | K ass [1] [M⁻¹ s⁻¹] | Survival time (Trypanosoma cruzi [2]) | Survival time (Trypanosoma cruzi [3])
1 | CN1CCN(C(=O)N[C@@H](Cc2ccccc2)C(=O)N[C@H](/C=C/S(=O)(=O)c2ccccc2)CCc2ccccc2)CC1 [K-777] | 420000 | >24 days | 
2 | O=C(N[C@@H](Cc1ccccc1)C(=O)N[C@H](/C=C/S(=O)(=O)Nc1ccccc1)CCc1ccccc1)OCc1ccccc1 | 242000 | 6 days | 
3 | O=C(N[C@H](/C=C/S(=O)(=O)Cc1ccccc1)CCc1ccccc1)[C@H](Cc1ccccc1)NC(=O)N1CCOCC1 | 1.67e+06 | 20 days | 
4 | O=C(N[C@H](/C=C/S(=O)(=O)Nc1ccccc1)CCc1ccccc1)[C@H](Cc1ccccc1)NC(=O)N1CCOCC1 | 4.92e+06 | 9 days | 
5 | O=C(N[C@H](/C=C/S(=O)(=O)Oc1ccccc1)CCc1ccccc1)[C@H](Cc1ccccc1)NC(=O)N1CCOCC1 | 1.02e+07 | Toxic | 
6 | O=C(N[C@@H](Cc1ccccc1)C(=O)N[C@H](/C=C/S(=O)(=O)Cc1ccccc1)CCc1ccccc1)OCc1ccccc1 | 1.4e+06 | 6 days | 
7 | O=C(N[C@H](/C=C/S(=O)(=O)NOCc1ccccc1)CCc1ccccc1)[C@H](Cc1ccccc1)NC(=O)N1CCOCC1 | 2.27e+06 | >24 days | 
8 | CN1CCN(C(=O)N[C@@H](Cc2ccccc2)C(=O)N[C@H](/C=C/S(=O)(=O)Cc2ccccc2)CCc2ccccc2)CC1 | 3.85e+06 | 13 days | 
9 | O=C(N[C@H](/C=C/S(=O)(=O)c1ccccc1)CCc1ccccc1)[C@H](Cc1ccccc1)NC(=O)N1CCOCC1 | 181000 | >24 days | 
10 | O=C(N[C@@H](Cc1ccccc1)C(=O)N[C@H](/C=C/S(=O)(=O)Oc1ccccc1)CCc1ccccc1)OCc1ccccc1 | 1.68e+07 |  | Toxic
11 | CN1CCN(C(=O)N[C@@H](Cc2ccccc2)C(=O)N[C@H](/C=C/S(=O)(=O)Oc2ccccc2)CCc2ccccc2)CC1 | 720000 | 9 days | 
12 | CN1CCN(C(=O)N[C@@H](Cc2ccccc2)C(=O)N[C@H](/C=C/S(=O)(=O)NOCc2ccccc2)CCc2ccccc2)CC1 | 6.48e+06 | >24 days | 
13 | CN1CCN(C(=O)N[C@@H](Cc2ccccc2)C(=O)N[C@H](/C=C/S(=O)(=O)Nc2ccccc2)CCc2ccccc2)CC1 | 1.26e+06 | 9 days | 
